The subject of one data set is HMC-1-8. Kind of data set: Antiproliferation assay 7, HMC-1-8. The data set is classed as cell-based. The settings on record: HMC-1-8 cells, CellTiter-Glo, read-out: Antiproli HMC-1-8 IC50 median. As to the method:
Assessment of the Anti-Proliferative Effect of Compounds in Different Cell Lines
The impact of compounds on the proliferation of different cell lines was assessed using the CellTiter-Glo® Luminescent Cell Viability reagent from Promega (G7573).
In parallel, cells were plated in a reference (day 0) plate for time zero determination.
Rim wells were excluded. The cells were incubated for 72 hours in a humidified incubator at 37° C. The day 0 plate was measured by adding 30 μL/well of CTG solution (CellTiter-Glo® Luminescent Cell Viability reagent, Promega G7573) to time zero wells in the reference plate followed by a 10 minutes incubation and luminescence reading at 0.1 ms. using the PHERAstar FS microplate reader (BMG Labtech).
After 72 hours incubation, the treated plates were measured in the same way as the day 0 plate mentioned above.

Another data set concerns AMO-1. The experiment in a line: Antiproliferation assay 7, AMO-1. The format is cell-based. The settings on record: AMO-1 cells, CellTiter-Glo, read-out: Antiproli AMO-1 IC50 median. Put shortly:
(§1)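 Plate cells in treatment and day 0 reference plates; read day 0 plate with CellTiter-Glo after 10 min; incubate treated plates 72 h at 37° C; read them identically.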
On the technique in general: Cellular ATP, detected with luciferase, serves as a proxy for viable cell number.

Data set [1] concerns SUDHL5. Kind of data set: Induction of cytotoxicity (Assay 6), SUDHL5.
Data set [2] has as its system SUDHL5. Kind of data set: Antiproliferation assay 7, SUDHL5. The note with it: SUDHL5 cells, CellTiter-Glo, read-out: Antiproli SUDHL5 IC50 (median). The data set is classed as cell-based. In outline: as §1
For data set [3], the system named is SUDHL10. The experiment in a line: Induction of cytotoxicity (Assay 6), SUDHL10.
Data set [4] concerns SUDHL10. The experiment in a line: Induction of caspase-3/7 activity (Assay 4), SUDHL10. The data set is classed as cell-based. The note with it: SUDHL10 cells. Put shortly: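 Luminescent Caspase-Glo 3/7 read-out after a 3 h, 37 °C compound exposure of the DLBCL line SUDHL10. Values are background-corrected using medium-only wells.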
In data set [5] the test system is SUDHL5. Kind of data set: Induction of caspase-3/7 activity (Assay 4), SUDHL5. The data set is classed as cell-based. The note with it: SUDHL5 cells. In outline: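 DLBCL cells treated with compounds for 3 hours at 37° C. Caspase-3/7 activity measured by Caspase-Glo 3/7 luminescence, with medium-only background subtracted.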
The subject of another data set is MV-4-11. The experiment in a line: Antiproliferation assay 7, MV-4-11. The format is cell-based. The note with it: MV-4-11 cells, 72 hours, CellTiter-Glo; read-out: Antiproli MV-4-11 IC50 median. In outline: as §1
Setting [6] is: read-out: Cytotox SUDHL5 IC50 (median), SUDHL5 cells, 5 hours, CellTiter-Glo.
[7] abbreviates: read-out: Cytotox SUDHL10 IC50 (median), SUDHL10 cells, 5 hours, CellTiter-Glo.
The mark [8] stands for this setting: 3 hours, Caspase-Glo 3/7, read-out: Caspase SUDHL10 EC50 (median).
Setting [9] is: 3 hours, Caspase-Glo 3/7, read-out: Caspase SUDHL5 EC50 (median).
Setting [10] is: Homo sapiens, SU-DHL-5, 5 h, read-out: Cytotox SUDHL5 IC50 (median), SUDHL5 cells, 5 hours, CellTiter-Glo.
Setting [11] is: Homo sapiens, SU-DHL-5, 3 h, Caspase-Glo 3/7, read-out: Caspase SUDHL5 EC50 (median).

Structures are written as SMILES. Where a name gives a salt, the structure may show the parent alone. Read-outs that look alike come from different tables or passages of the source.

For ten molecules, IC50 and EC50 results are on record in patent publication US11447504B2, “Macrocyclic chlorine substituted indole derivatives” (Bayer Aktiengesellschaft, priority 2017, dated 2022).

As to `CCc1nn(CCN2CCOCC2)c2c1-c1c(Cl)ccc3c(CCCOc4cccc5ccccc45)c(C(=O)O)n(c13)C/C=C\CN(C)C2` (single isomer, unassigned; enantiomer 1) [Example 43, (11Z)-4-chloro-3-ethyl-14-methyl-1-[2-(morpholin-4-yl)ethyl]-7-{3-[(naphthalen-1-yl)oxy]propyl}-10,13,14,15-tetrahydro-1H-pyrazolo[3′,4′:8,9][1,6]diazacycloundecino[10,11,1-hi]indole-8-carboxylic Acid-Ammonia Salt (Enantiomer 1)], the IC50 with HMC-1-8 (72 h) came out at 2060 nM; in the data set with AMO-1 (72 hours), 1130 nM; in the data set with SUDHL5 [1] (setting [6]), 700 nM; with SUDHL5 [2] (72 hours), 950 nM; in the data set on SUDHL10 [3] (setting [7]), 1200 nM; in the data set on MV-4-11, 1380 nM. Further, the EC50 in the data set on SUDHL10 [4] (setting [8]) turned out to be 1600 nM; with SUDHL5 [5] (setting [9]), 620 nM.
On to `CCc1c2c(nn1C)COCCCCn1c(C(=O)O)c(CCCOc3cccc4cc(F)ccc34)c3ccc(Cl)c-2c31` (single isomer, unassigned; enantiomer 1) [Example 37, (+)-4-chloro-3-ethyl-7-{3-[(6-fluoronaphthalen-1-yl)oxy]propyl}-2-methyl-2,10,11,12,13,15-hexahydropyrazolo[4′,3′:9,10][1,6]oxazacycloundecino[8,7,6-hi]indole-8-carboxylic acid-N-ethylethanamine Salt (Enantiomer 1)], for which the IC50 was determined as 1130 nM in the data set on HMC-1-8 (72 h); 363 nM with AMO-1 (72 hours); 200 nM in the data set with SUDHL5 [1] (setting [6]); 280 nM with SUDHL5 [2] (72 hours); 377 nM in the data set on MV-4-11. For the same molecule, the 50% effective concentration (EC50) in the data set with SUDHL5 [5] (setting [9]) was found to be 170 nM.
Consider `CCc1nn(C)c2c1-c1c(Cl)ccc3c(CCCOc4cccc5cc(F)ccc45)c(C(=O)O)n(c13)CCCCN(C)C2` (single isomer, unassigned; enantiomer 1) [Example 40, 4-chloro-3-ethyl-7-{3-[(6-fluoronaphthalen-1-yl)oxy]propyl}-1,14-dimethyl-10,11,12,13,14,15-hexahydro-1H-pyrazolo[3′,4′:8,9][1,6]diazacycloundecino[10,11,1-hi]indole-8-carboxylic Acid (Enantiomer 1)], for which the IC50 with HMC-1-8 (72 h) was found to be 695 nM; in the data set on AMO-1 (72 hours) it was 539 nM; with SUDHL5 [1] (setting [6]) it was 110 nM; with SUDHL5 [2] (72 hours) it was 150 nM; in the data set on SUDHL10 [3] (setting [7]), 290 nM; in the data set with MV-4-11 it was 95.5 nM. Moreover, the figures for the EC50 in the data set with SUDHL10 [4] (setting [8]) and with SUDHL5 [5] (setting [9]) were 310 nM and 140 nM, respectively.
On to `CCc1c2c(nn1C)CN(C)CCCCn1c(C(=O)O)c(CCCOc3cccc4cc(F)ccc34)c3ccc(Cl)c-2c31` (single isomer, unassigned; enantiomer 1) [Example 6, 4-chloro-3-ethyl-7-{3-[(6-fluoronaphthalen-1-yl)oxy]propyl}-2,14-dimethyl-10,11,12,13,14,15-hexahydro-2H-pyrazolo[3′,4′:8,9][1,6]diazacycloundecino[10,11,1-hi]indole-8-carboxylic Acid (Enantiomer 1)], for which the IC50 with HMC-1-8 (72 h) came out at 1210 nM; in the data set with AMO-1 (72 hours), 369 nM; with SUDHL5 [1] (setting [6]), 190 nM; in the data set on SUDHL5 [2] (72 hours), 230 nM; with SUDHL10 [3] (setting [7]), 350 nM; in the data set on MV-4-11 it was 79.4 nM. Besides, the EC50 is 340 nM in the data set with SUDHL10 [4] (setting [8]) and 130 nM with SUDHL5 [5] (setting [9]).
Consider `CCc1c2c(nn1C)CN(C)CCCCn1c(C(=O)O)c(CCCOc3cccc4ccccc34)c3ccc(Cl)c-2c31` (single isomer, unassigned; enantiomer 1) [Example 23, 4-chloro-3-ethyl-2,14-dimethyl-7-[3-(naphthalen-1-yloxy)propyl]-10,11,12,13,14,15-hexahydro-2H-pyrazolo[3′,4′:8,9][1,6]diazacycloundecino[10,11,1-hi]indole-8-carboxylic Acid (Enantiomer 1)], for which the IC50 with HMC-1-8 (72 h) amounted to 5160 nM; in the data set on AMO-1 (Homo sapiens, AMO1, 72 h), 613 nM; with SUDHL5 [1] (setting [6]) it was 140 nM; with SUDHL10 [3] (setting [7]), 310 nM; in the data set with MV-4-11 it was 387 nM. In addition, in the data set on SUDHL5 [5] (setting [9]), the EC50 amounted to 92 nM.
On to `Cc1c2c(nn1C)CN(CC(F)(F)F)CCCCn1c(C(=O)O)c(CCCOc3cccc4cc(F)ccc34)c3ccc(Cl)c-2c31` (single isomer, unassigned; enantiomer 1) [Example 59, 4-chloro-7-{3-[(6-fluoronaphthalen-1-yl)oxy]propyl}-2,3-dimethyl-14-(2,2,2-trifluoroethyl)-10,11,12,13,14,15-hexahydro-2H-pyrazolo[3′,4′:8,9][1,6]diazacycloundecino[10,11,1-hi]indole-8-carboxylic Acid—Enantiomer 1], for which the IC50 in the data set on HMC-1-8 (72 hours) was 1120 nM; with AMO-1 (72 hours) it was 216 nM; in the data set with SUDHL5 [1] (setting [6]), 310 nM; in the data set on SUDHL5 [2] (72 hours), 340 nM; in the data set with SUDHL10 [3] (setting [7]), 550 nM. The EC50 was 490 nM in the data set with SUDHL10 [4] (setting [8]) and 240 nM in the data set with SUDHL5 [5] (setting [9]).
As to `Cc1c2c(nn1C)COCC(F)(F)CCn1c(C(=O)O)c(CCCOc3cccc4ccccc34)c3ccc(Cl)c-2c31` (single isomer, unassigned; enantiomer 1) [Example 56, 4-chloro-12,12-difluoro-2,3-dimethyl-7-{3-[(naphthalen-1-yl)oxy]propyl}-2,10,11,12,13,15-hexahydropyrazolo[4′,3′:9,10][1,6]oxazacycloundecino[8,7,6-hi]indole-8-carboxylic acid-N-ethylethanamine Salt—Enantiomer 1], the IC50 in the data set on HMC-1-8 (72 h) came to 8270 nM; in the data set with AMO-1 (72 hours), 1770 nM; in the data set on SUDHL5 [1] (setting [6]) it was 590 nM; in the data set with SUDHL5 [2] (72 hours), 1100 nM; with SUDHL10 [3] (setting [7]), 1600 nM. In addition, the EC50 in the data set on SUDHL10 [4] (setting [8]) was found to be 1800 nM; in the data set on SUDHL5 [5] (setting [9]) it was 690 nM.
`CCc1c2c(nn1C)CCCCCCn1c(C(=O)O)c(CCCOc3cccc4cc(F)ccc34)c3ccc(Cl)c-2c31` (racemic) [Example 54, (rac)-4-chloro-3-ethyl-7-{3-[(6-fluoronaphthalen-1-yl)oxy]propyl}-2-methyl-10,11,12,13,14,15-hexahydro-2H-pyrazolo[4′,3′:4,5]azacycloundecino[3,2,1-hi]indole-8-carboxylic Acid]: the IC50 in the data set on HMC-1-8 (72 h) came out at 2210 nM; with AMO-1 (Homo sapiens, AMO1, 72 h) it was 1350 nM; in the data set with SUDHL5 [1] (setting [10]), 670 nM; in the data set on SUDHL5 [2] (Homo sapiens, SU-DHL-5, 72 h), 430 nM; in the data set on SUDHL10 [3] (Homo sapiens, SU-DHL10, 5 h, read-out: Cytotox SUDHL10 IC50 (median), SUDHL10 cells, 5 hours, CellTiter-Glo), 740 nM. For the same molecule, the EC50 stood at 520 nM with SUDHL10 [4] (Homo sapiens, SU-DHL10, 3 h, Caspase-Glo 3/7, read-out: Caspase SUDHL10 EC50 (median)) and 600 nM in the data set on SUDHL5 [5] (setting [11]).
On to `Cc1c2c(nn1C)COCC1CCC1Cn1c(C(=O)O)c(CCCOc3cccc4ccccc34)c3ccc(Cl)c-2c31` (single isomer, unassigned; stereoisomer 1) [Example 63], for which the IC50 in the data set on HMC-1-8 (72 h) was found to be 7850 nM; in the data set with AMO-1 (72 hours), 2560 nM; with SUDHL5 [1] (setting [10]) it was 1500 nM; with SUDHL5 [2] (Homo sapiens, SU-DHL-5, 72 h), 2600 nM; in the data set with SUDHL10 [3] (setting [7]), 3300 nM. In addition, the EC50 in the data set on SUDHL10 [4] (setting [8]) is 3100 nM; with SUDHL5 [5] (setting [11]), 1400 nM.
As for `CCc1nn(C)c2c1-c1c(Cl)ccc3c(CCCOc4cccc5cc(F)ccc45)c(C(=O)O)n(c13)CCCCOC2` (single isomer, unassigned; enantiomer 1) [Example 34, (+)-4-chloro-3-ethyl-7-{3-[(6-fluoronaphthalen-1-yl)oxy]propyl}-1-methyl-1,10,11,12,13,15-hexahydropyrazolo[4′,3′:9,10][1,6]oxazacycloundecino[8,7,6-hi]indole-8-carboxylic Acid (Enantiomer 1)], the IC50 in the data set with HMC-1-8 (72 h) amounted to 2030 nM; in the data set on AMO-1 (72 hours), 1410 nM; in the data set with SUDHL5 [1] (setting [6]), 530 nM; in the data set on SUDHL5 [2] (72 hours), 620 nM; with MV-4-11, 1260 nM. The EC50 in the data set on SUDHL5 [5] (setting [9]) is 380 nM.

As a reminder, the IC50 is the point on the concentration scale where inhibition reaches its midpoint. One may read the EC50 as the concentration giving half of the maximal effect.
